# Source: patent US9062030B2, “Pyrazole azetidine derivatives as sphingosine 1-phosphate (S1P) receptor modulators” (Allergan, Inc., priority 2013, dated 2015)
# Biological target: T1, human S1P1 receptor (Homo sapiens, UniProt P21453)
# T1 construct: expressed in transfected cells; membranes used
# Assay: GTP γ35S binding assay for S1P1 activity
# Type: biochemical
# Settings: membranes of cells stably expressing the S1P1 receptor, agonist activity potency
# Procedure: Compounds were synthesized and tested for S1P1 activity using the GTP γ^35S binding assay. These compounds may be assessed for their ability to activate or block activation of the human S1P1 receptor in cells stably expressing the S1P1 receptor.
# GTP γ^35S binding was measured in the medium containing (mM) HEPES 25, pH 7.4, MgCl2 10, NaCl 100, dithiothreitol 0.5, digitonin 0.003%, 0.2 nM GTP γ^35S, and 5 μg membrane protein in a volume of 150 μl. Test compounds were included in the concentration range from 0.08 to 5,000 nM unless indicated otherwise. Membranes were incubated with 100 μM 5′-adenylylimidodiphosphate for 30 min, and subsequently with 10 μM GDP for 10 min on ice. Drug solutions and membrane were mixed, and then reactions were initiated by adding GTP γ^35S and continued for 30 min at 25° C. Reaction mixtures were filtered over Whatman GF/B filters under vacuum, and washed three times with 3 mL of ice-cold buffer (HEPES 25, pH 7.4, MgCl2 10 and NaCl 100). Filters were dried and mixed with scintillant, and counted for ^35S activity using a β-counter. Agonist-induced GTP γ^35S binding was obtained by subtracting that in the absence of agonist. Binding data were analyzed using a non-linear regression method. In case of antagonist assay, the reaction mixture contained 10 nM S1P in the presence of test antagonist at concentrations ranging from 0.08 to 5000 nM.
# T1 sequence (P21453 whole entry): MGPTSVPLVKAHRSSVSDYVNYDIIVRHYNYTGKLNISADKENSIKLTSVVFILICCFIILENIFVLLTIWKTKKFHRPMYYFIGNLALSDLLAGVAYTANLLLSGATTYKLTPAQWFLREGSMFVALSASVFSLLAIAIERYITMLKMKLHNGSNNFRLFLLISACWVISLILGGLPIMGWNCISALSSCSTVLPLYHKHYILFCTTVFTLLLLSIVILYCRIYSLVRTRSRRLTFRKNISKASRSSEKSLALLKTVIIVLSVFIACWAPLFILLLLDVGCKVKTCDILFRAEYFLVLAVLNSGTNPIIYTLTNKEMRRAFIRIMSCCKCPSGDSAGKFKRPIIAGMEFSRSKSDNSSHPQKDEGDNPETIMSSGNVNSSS
structure (smiles),measurement,value
"Cc1nn(C(=O)CCc2ccc(CN3CC(C(=O)O)C3)cc2)c2c1C1C(C2)C1(C)C (stereo not shown) [Compound 1, 1-{4-[3-oxo-3-(3,4,4-trimethyl-3b,4,4a,5-tetrahydro-1H-cyclopropa [3,4]cyclopenta[1,2-c]pyrazol-1-yl)propyl]benzyl}azetidine-3-carboxylic acid]",EC50,450 nM
